From the NIST ThermoML archive (doi:10.1021/je8006474)
± gives the expanded uncertainty stated by the source.

Experiments:
[1] = 101.33 kPa, Liquid, Pycnometric method
[2] = xn = mol fraction of the nth substance listed; settings: Pycnometric method
[3] = 294.4 K, Liquid mixture 2, x1 = 1
[4] = 283.5 K, Liquid mixture 2, x1 = 1
[5] = 333.2 K, Liquid mixture 2, x1 = 1
[6] = 353.1 K, Liquid mixture 2, x1 = 1
[7] = 373 K, Liquid mixture 2, x1 = 1

Work on `Fc1cc(F)c(F)c(F)c1F` [pentafluorobenzene] yielded a mass density ([1]; 296.9 K) of 1511 ± 20 kg/m3 and a mass density ([1]; 327.6 K) of 1453 ± 20 kg/m3.

Work on `Fc1ccc(F)c(F)c1F` [1,2,3,4-tetrafluorobenzene] yielded a mass density ([1]; 296.4 K) of 1408 ± 40 kg/m3 and a mass density ([1]; 327.4 K) of 1360 ± 40 kg/m3.

`Fc1ccccc1` [fluorobenzene] gave a mass density ([1]; 296.2 K) of 1022 ± 16 kg/m3 and a mass density ([1]; 330.1 K) of 985 ± 16 kg/m3.

Work on `Fc1ccc(F)cc1` [1,4-difluorobenzene] yielded a mass density ([1]; 296.1 K) of 1146 ± 36 kg/m3 and a mass density ([1]; 327.2 K) of 1110 ± 36 kg/m3.

With `Fc1ccc(F)cc1` [1,4-difluorobenzene] + CCn1cc[n+](C)c1.O=S(=O)([N-]S(=O)(=O)C(F)(F)F)C(F)(F)F the molar volume ([2]; 283.4 K, Liquid mixture 1, x1 = 0.816) was 0.0001239 ± 7.2e-06 m3/mol, the molar volume ([2]; 283.4 K, Liquid mixture 2, x1 = 1) was 9.76e-05 ± 6.4e-06 m3/mol and the molar volume ([2]; 294.4 K, Liquid mixture 1, x1 = 0.814) was 0.0001255 ± 7.2e-06 m3/mol. It also gave a molar volume [2, 3] of 9.88e-05 ± 6.4e-06 m3/mol, a molar volume ([2]; 316.2 K, Liquid mixture 1, x1 = 0.81) of 0.0001288 ± 7.2e-06 m3/mol and a molar volume ([2]; 316.2 K, Liquid mixture 2, x1 = 1) of 0.000101 ± 6.4e-06 m3/mol. It also gave a molar volume ([2]; 343.2 K, Liquid mixture 1, x1 = 0.807) of 0.0001337 ± 7.2e-06 m3/mol, a molar volume ([2]; 343.2 K, Liquid mixture 2, x1 = 0.999) of 0.0001038 ± 6.4e-06 m3/mol and a molar volume ([2]; 353.1 K, Liquid mixture 1, x1 = 0.804) of 0.0001354 ± 7.2e-06 m3/mol. The molar volume ([2]; 353.1 K, Liquid mixture 2, x1 = 0.999) was 0.000105 ± 6.4e-06 m3/mol, the molar volume ([2]; 373 K, Liquid mixture 1, x1 = 0.799) was 0.0001387 ± 7.2e-06 m3/mol and the molar volume ([2]; 373 K, Liquid mixture 2, x1 = 0.999) was 0.0001069 ± 6.4e-06 m3/mol.

`Fc1ccc(F)c(F)c1` [1,2,4-trifluorobenzene] + CCn1cc[n+](C)c1.O=S(=O)([N-]S(=O)(=O)C(F)(F)F)C(F)(F)F showed a molar volume ([2]; 362.4 K, Liquid mixture 1, x1 = 0.893) of 0.0001242 ± 5.2e-06 m3/mol, a molar volume ([2]; 362.4 K, Liquid mixture 2, x1 = 0.977) of 0.0001135 ± 6.2e-06 m3/mol and a molar volume ([2]; 367.4 K, Liquid mixture 1, x1 = 0.892) of 0.0001247 ± 5.2e-06 m3/mol. For the same molecule, the molar volume ([2]; 367.4 K, Liquid mixture 2, x1 = 0.977) was 0.000114 ± 6.2e-06 m3/mol, the molar volume ([2]; 372.4 K, Liquid mixture 1, x1 = 0.891) was 0.0001252 ± 5.2e-06 m3/mol and the molar volume ([2]; 372.4 K, Liquid mixture 2, x1 = 0.977) was 0.0001145 ± 6.2e-06 m3/mol.

`Fc1ccccc1` [fluorobenzene] + CCn1cc[n+](C)c1.O=S(=O)([N-]S(=O)(=O)C(F)(F)F)C(F)(F)F showed a molar volume ([2]; 282.5 K, Liquid mixture 1, x1 = 0.875) of 0.0001125 ± 5.6e-06 m3/mol, a molar volume ([2]; 282.5 K, Liquid mixture 2, x1 = 0.992) of 9.31e-05 ± 2.4e-06 m3/mol and a molar volume ([2]; 297.9 K, Liquid mixture 1, x1 = 0.875) of 0.0001137 ± 5.6e-06 m3/mol. The molar volume ([2]; 297.9 K, Liquid mixture 2, x1 = 0.991) was 9.45e-05 ± 2.4e-06 m3/mol, the molar volume ([2]; 315.5 K, Liquid mixture 1, x1 = 0.874) was 0.000115 ± 5.6e-06 m3/mol and the molar volume ([2]; 315.5 K, Liquid mixture 2, x1 = 0.99) was 9.61e-05 ± 2.4e-06 m3/mol. For the same molecule, the molar volume ([2]; 333.2 K, Liquid mixture 1, x1 = 0.872) was 0.0001169 ± 5.6e-06 m3/mol, the molar volume ([2]; 333.2 K, Liquid mixture 2, x1 = 0.989) was 9.84e-05 ± 2.4e-06 m3/mol and the molar volume ([2]; 353.1 K, Liquid mixture 1, x1 = 0.869) was 0.0001197 ± 5.6e-06 m3/mol. It also gave a molar volume ([2]; 353.1 K, Liquid mixture 2, x1 = 0.989) of 0.000101 ± 2.4e-06 m3/mol, a molar volume ([2]; 373 K, Liquid mixture 1, x1 = 0.865) of 0.0001231 ± 5.6e-06 m3/mol and a molar volume ([2]; 373 K, Liquid mixture 2, x1 = 0.989) of 0.0001035 ± 2.4e-06 m3/mol.

Molecule `Fc1cc(F)cc(F)c1` [1,3,5-trifluorobenzene] + CCn1cc[n+](C)c1.O=S(=O)([N-]S(=O)(=O)C(F)(F)F)C(F)(F)F has a molar volume ([2]; 283.5 K, Liquid mixture 1, x1 = 0.497) of 0.0001754 ± 1.3e-05 m3/mol, a molar volume [2, 4] of 0.0001013 ± 3.6e-06 m3/mol and a molar volume ([2]; 298.2 K, Liquid mixture 1, x1 = 0.498) of 0.0001762 ± 1.3e-05 m3/mol. It also gave a molar volume ([2]; 298.2 K, Liquid mixture 2, x1 = 1) of 0.0001035 ± 3.6e-06 m3/mol, a molar volume ([2]; 316.6 K, Liquid mixture 1, x1 = 0.487) of 0.000179 ± 1.3e-05 m3/mol and a molar volume ([2]; 316.6 K, Liquid mixture 2, x1 = 1) of 0.0001057 ± 3.6e-06 m3/mol. The molar volume ([2]; 333.2 K, Liquid mixture 1, x1 = 0.482) was 0.0001815 ± 1.3e-05 m3/mol, the molar volume [2, 5] was 0.000108 ± 3.6e-06 m3/mol and the molar volume ([2]; 353.1 K, Liquid mixture 1, x1 = 0.478) was 0.000183 ± 1.3e-05 m3/mol. The molar volume [2, 6] was 0.0001108 ± 3.6e-06 m3/mol, the molar volume ([2]; 373 K, Liquid mixture 1, x1 = 0.482) was 0.0001846 ± 1.3e-05 m3/mol and the molar volume [2, 7] was 0.0001144 ± 3.6e-06 m3/mol.

`Fc1cc(F)c(F)cc1F` [1,2,4,5-tetrafluorobenzene] + CCn1cc[n+](C)c1.O=S(=O)([N-]S(=O)(=O)C(F)(F)F)C(F)(F)F gave a molar volume ([2]; 283.3 K, Liquid mixture 1, x1 = 0.736) of 0.0001422 ± 5.2e-06 m3/mol, a molar volume ([2]; 283.3 K, Liquid mixture 2, x1 = 0.999) of 0.000103 ± 3e-06 m3/mol and a molar volume ([2]; 298.2 K, Liquid mixture 1, x1 = 0.731) of 0.0001449 ± 5.2e-06 m3/mol. For the same molecule, the molar volume ([2]; 298.2 K, Liquid mixture 2, x1 = 0.999) was 0.0001047 ± 3e-06 m3/mol, the molar volume ([2]; 315.5 K, Liquid mixture 1, x1 = 0.725) was 0.0001473 ± 5.2e-06 m3/mol and the molar volume ([2]; 315.5 K, Liquid mixture 2, x1 = 1) was 0.0001074 ± 3e-06 m3/mol. For the same molecule, the molar volume ([2]; 333.2 K, Liquid mixture 1, x1 = 0.718) was 0.0001508 ± 5.2e-06 m3/mol, the molar volume [2, 5] was 0.0001095 ± 3e-06 m3/mol and the molar volume ([2]; 353.1 K, Liquid mixture 1, x1 = 0.71) was 0.0001551 ± 5.2e-06 m3/mol. The molar volume [2, 6] was 0.0001124 ± 3e-06 m3/mol, the molar volume ([2]; 373 K, Liquid mixture 1, x1 = 0.702) was 0.0001595 ± 5.2e-06 m3/mol and the molar volume [2, 7] was 0.0001157 ± 3e-06 m3/mol.

In the case of `Fc1cc(F)c(F)c(F)c1` [1,2,3,5-tetrafluorobenzene] + CCn1cc[n+](C)c1.O=S(=O)([N-]S(=O)(=O)C(F)(F)F)C(F)(F)F, the molar volume ([2]; 283.5 K, Liquid mixture 1, x1 = 0.659) is reported as 0.0001523 ± 1.1e-05 m3/mol, the molar volume [2, 4] is reported as 0.0001053 ± 5.1e-06 m3/mol and the molar volume ([2]; 298.3 K, Liquid mixture 1, x1 = 0.652) is reported as 0.0001562 ± 1.1e-05 m3/mol. For the same molecule, the molar volume ([2]; 298.3 K, Liquid mixture 2, x1 = 1) was 0.0001069 ± 5.1e-06 m3/mol, the molar volume ([2]; 316.7 K, Liquid mixture 1, x1 = 0.647) was 0.0001579 ± 1.1e-05 m3/mol and the molar volume ([2]; 316.7 K, Liquid mixture 2, x1 = 1) was 0.0001096 ± 5.1e-06 m3/mol. For the same molecule, the molar volume ([2]; 333.2 K, Liquid mixture 1, x1 = 0.638) was 0.0001605 ± 1.1e-05 m3/mol, the molar volume [2, 5] was 0.0001119 ± 5.1e-06 m3/mol and the molar volume ([2]; 353.1 K, Liquid mixture 1, x1 = 0.631) was 0.000164 ± 1.1e-05 m3/mol. The molar volume [2, 6] was 0.0001149 ± 5.1e-06 m3/mol, the molar volume ([2]; 373 K, Liquid mixture 1, x1 = 0.623) was 0.0001688 ± 1.1e-05 m3/mol and the molar volume [2, 7] was 0.000118 ± 5.1e-06 m3/mol.

In the case of `Fc1cccc(F)c1` [1,3-difluorobenzene] + CCn1cc[n+](C)c1.O=S(=O)([N-]S(=O)(=O)C(F)(F)F)C(F)(F)F, the molar volume ([2]; 283.3 K, Liquid mixture 1, x1 = 0.757) is reported as 0.000134 ± 7.2e-06 m3/mol, the molar volume ([2]; 283.3 K, Liquid mixture 2, x1 = 1) is reported as 9.82e-05 ± 7.6e-06 m3/mol and the molar volume ([2]; 294.4 K, Liquid mixture 1, x1 = 0.755) is reported as 0.0001363 ± 7.2e-06 m3/mol. The molar volume [2, 3] was 9.93e-05 ± 7.6e-06 m3/mol, the molar volume ([2]; 316.1 K, Liquid mixture 1, x1 = 0.753) was 0.0001404 ± 7.2e-06 m3/mol and the molar volume ([2]; 316.1 K, Liquid mixture 2, x1 = 1) was 0.000102 ± 7.6e-06 m3/mol. It also gave a molar volume ([2]; 333.3 K, Liquid mixture 1, x1 = 0.748) of 0.0001429 ± 7.2e-06 m3/mol, a molar volume ([2]; 333.3 K, Liquid mixture 2, x1 = 1) of 0.000104 ± 7.6e-06 m3/mol and a molar volume ([2]; 353.1 K, Liquid mixture 1, x1 = 0.742) of 0.000146 ± 7.2e-06 m3/mol. For the same molecule, the molar volume [2, 6] was 0.0001065 ± 7.6e-06 m3/mol, the molar volume ([2]; 373 K, Liquid mixture 1, x1 = 0.736) was 0.0001492 ± 7.2e-06 m3/mol and the molar volume [2, 7] was 0.000109 ± 7.6e-06 m3/mol.

With `Fc1cc(F)c(F)c(F)c1F` [pentafluorobenzene] + CCn1cc[n+](C)c1.O=S(=O)([N-]S(=O)(=O)C(F)(F)F)C(F)(F)F the molar volume ([2]; 283.4 K, Liquid mixture 1, x1 = 0.715) was 0.0001484 ± 6.2e-06 m3/mol, the molar volume ([2]; 283.4 K, Liquid mixture 2, x1 = 0.997) was 0.0001093 ± 4.8e-06 m3/mol and the molar volume ([2]; 298.2 K, Liquid mixture 1, x1 = 0.704) was 0.0001523 ± 6.2e-06 m3/mol. For the same molecule, the molar volume ([2]; 298.2 K, Liquid mixture 2, x1 = 0.998) was 0.0001109 ± 4.8e-06 m3/mol, the molar volume ([2]; 316.6 K, Liquid mixture 1, x1 = 0.696) was 0.0001552 ± 6.2e-06 m3/mol and the molar volume ([2]; 316.6 K, Liquid mixture 2, x1 = 0.997) was 0.0001139 ± 4.8e-06 m3/mol. It also gave a molar volume ([2]; 333.2 K, Liquid mixture 1, x1 = 0.681) of 0.0001605 ± 6.2e-06 m3/mol, a molar volume [2, 5] of 0.0001155 ± 4.8e-06 m3/mol and a molar volume ([2]; 353.1 K, Liquid mixture 1, x1 = 0.669) of 0.0001652 ± 6.2e-06 m3/mol. For the same molecule, the molar volume [2, 6] was 0.0001187 ± 4.8e-06 m3/mol, the molar volume ([2]; 373 K, Liquid mixture 1, x1 = 0.657) was 0.0001692 ± 6.2e-06 m3/mol and the molar volume [2, 7] was 0.0001228 ± 4.8e-06 m3/mol.
